Reference: ChEMBL document CHEMBL4765362, “Thirty Years of HDAC Inhibitors: 2020 Insight and Hindsight” (J Med Chem, 2020)

Key:
[1] = target: T1, Polyamine deacetylase HDAC10 (Homo sapiens, UniProt Q969S8); assay: Inhibition of HDAC10 (unknown origin)
T1 sequence (Q969S8 whole entry): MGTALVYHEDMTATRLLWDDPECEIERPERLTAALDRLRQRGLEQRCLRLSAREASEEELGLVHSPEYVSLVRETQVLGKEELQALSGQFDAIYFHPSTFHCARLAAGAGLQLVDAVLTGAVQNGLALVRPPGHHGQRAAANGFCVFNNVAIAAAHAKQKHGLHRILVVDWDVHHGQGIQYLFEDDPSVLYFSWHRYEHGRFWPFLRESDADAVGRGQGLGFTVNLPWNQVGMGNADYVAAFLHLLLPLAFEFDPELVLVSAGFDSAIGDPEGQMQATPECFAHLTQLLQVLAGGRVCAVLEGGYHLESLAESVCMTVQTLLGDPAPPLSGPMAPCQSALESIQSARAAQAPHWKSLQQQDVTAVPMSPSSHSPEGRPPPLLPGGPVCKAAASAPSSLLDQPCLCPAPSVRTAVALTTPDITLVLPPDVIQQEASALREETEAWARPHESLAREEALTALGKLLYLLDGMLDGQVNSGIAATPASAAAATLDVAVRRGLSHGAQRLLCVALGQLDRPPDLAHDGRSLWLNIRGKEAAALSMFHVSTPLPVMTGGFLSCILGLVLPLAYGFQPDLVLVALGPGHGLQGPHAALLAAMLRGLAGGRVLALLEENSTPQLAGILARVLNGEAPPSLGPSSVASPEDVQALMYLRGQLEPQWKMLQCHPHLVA

Histone deacetylase 2 = Histone deacetylase 2 (Homo sapiens, UniProt Q92769); assay: Inhibition of HDAC2 (unknown origin)
Chain of Histone deacetylase 2 (Q92769 whole entry): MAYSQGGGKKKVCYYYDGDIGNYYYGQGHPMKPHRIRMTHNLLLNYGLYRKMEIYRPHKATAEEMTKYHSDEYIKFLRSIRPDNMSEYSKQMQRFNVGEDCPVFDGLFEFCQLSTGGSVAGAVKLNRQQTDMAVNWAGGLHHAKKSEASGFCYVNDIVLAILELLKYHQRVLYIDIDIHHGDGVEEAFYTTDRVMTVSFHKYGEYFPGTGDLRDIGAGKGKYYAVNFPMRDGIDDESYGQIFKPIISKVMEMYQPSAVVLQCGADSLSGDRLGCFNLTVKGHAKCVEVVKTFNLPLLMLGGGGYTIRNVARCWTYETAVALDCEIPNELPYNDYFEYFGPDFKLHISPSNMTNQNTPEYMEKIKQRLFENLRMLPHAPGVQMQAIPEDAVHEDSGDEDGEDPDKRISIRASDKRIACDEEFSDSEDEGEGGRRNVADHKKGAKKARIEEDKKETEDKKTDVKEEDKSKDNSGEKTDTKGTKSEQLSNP

Histone deacetylase 7 = target: T2, Histone deacetylase 7 (Homo sapiens, UniProt Q8WUI4); assay: Inhibition of HDAC7 (unknown origin)
T2 sequence (Q8WUI4 whole entry): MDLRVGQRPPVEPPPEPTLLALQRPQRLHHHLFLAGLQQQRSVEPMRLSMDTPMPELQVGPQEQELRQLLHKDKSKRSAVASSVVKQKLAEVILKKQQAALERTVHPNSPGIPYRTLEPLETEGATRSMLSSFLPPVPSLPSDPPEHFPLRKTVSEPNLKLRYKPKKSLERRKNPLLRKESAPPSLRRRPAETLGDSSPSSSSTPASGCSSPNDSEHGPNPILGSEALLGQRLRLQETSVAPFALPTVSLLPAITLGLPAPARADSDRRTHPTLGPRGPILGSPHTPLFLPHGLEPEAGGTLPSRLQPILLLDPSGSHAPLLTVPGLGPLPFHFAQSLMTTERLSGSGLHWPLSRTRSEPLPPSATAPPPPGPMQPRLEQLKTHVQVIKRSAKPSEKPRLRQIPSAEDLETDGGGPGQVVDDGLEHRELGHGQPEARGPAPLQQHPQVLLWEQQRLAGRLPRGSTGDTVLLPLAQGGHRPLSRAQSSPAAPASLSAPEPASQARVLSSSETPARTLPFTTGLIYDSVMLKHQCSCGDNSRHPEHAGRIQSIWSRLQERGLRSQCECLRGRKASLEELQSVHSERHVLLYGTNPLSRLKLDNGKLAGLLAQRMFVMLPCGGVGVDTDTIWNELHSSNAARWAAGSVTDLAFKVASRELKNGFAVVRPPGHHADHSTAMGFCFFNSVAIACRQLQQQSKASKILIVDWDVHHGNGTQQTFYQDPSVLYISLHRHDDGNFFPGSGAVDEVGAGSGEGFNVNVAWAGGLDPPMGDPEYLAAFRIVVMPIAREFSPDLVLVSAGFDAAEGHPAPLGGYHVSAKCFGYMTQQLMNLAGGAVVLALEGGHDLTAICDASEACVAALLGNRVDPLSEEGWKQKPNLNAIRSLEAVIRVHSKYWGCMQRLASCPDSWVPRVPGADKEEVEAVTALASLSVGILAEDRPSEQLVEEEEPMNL

Histone deacetylase 8 = target: T3, Histone deacetylase 8 (Homo sapiens, UniProt Q9BY41); assay: Inhibition of HDAC8 (unknown origin)
T3 sequence (Q9BY41 whole entry): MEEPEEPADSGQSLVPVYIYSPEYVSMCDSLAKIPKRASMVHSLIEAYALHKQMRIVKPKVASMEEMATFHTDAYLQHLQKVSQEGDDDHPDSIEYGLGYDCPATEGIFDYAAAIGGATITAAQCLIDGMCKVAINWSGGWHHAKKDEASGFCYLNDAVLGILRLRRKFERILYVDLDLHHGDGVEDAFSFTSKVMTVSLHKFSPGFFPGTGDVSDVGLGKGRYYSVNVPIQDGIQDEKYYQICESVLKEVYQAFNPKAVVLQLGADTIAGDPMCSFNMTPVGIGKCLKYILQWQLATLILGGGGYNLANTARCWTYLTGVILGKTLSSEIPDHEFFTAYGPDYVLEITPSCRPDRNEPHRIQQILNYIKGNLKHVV

Histone deacetylase 11 [2] = target: T4, Histone deacetylase 11 (Homo sapiens, UniProt Q96DB2); assay: Inhibition of human full length C-terminal Flag tagged HDAC11 expressed in HEK293T cells assessed as reduction in demyristoylation activity using H3K9-myristoyl peptide as substrate by HPLC method
T4 sequence (Q96DB2 whole entry): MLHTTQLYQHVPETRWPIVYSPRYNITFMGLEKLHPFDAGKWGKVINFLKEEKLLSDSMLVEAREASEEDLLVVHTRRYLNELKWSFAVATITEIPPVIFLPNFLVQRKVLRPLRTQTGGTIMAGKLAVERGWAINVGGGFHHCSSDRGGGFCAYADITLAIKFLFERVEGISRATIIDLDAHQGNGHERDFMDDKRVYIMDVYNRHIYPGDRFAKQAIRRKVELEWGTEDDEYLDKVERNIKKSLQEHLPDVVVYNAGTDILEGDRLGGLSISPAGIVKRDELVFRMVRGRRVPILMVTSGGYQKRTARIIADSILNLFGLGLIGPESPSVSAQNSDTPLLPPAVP

Histone deacetylase 4 = Histone deacetylase 4 (Homo sapiens, UniProt P56524); assay: Inhibition of HDAC4 (unknown origin) using HDAC class IIa substrate (trifluoroacetyl-lysine-AMC) as substrate by fluorescent method
Chain of Histone deacetylase 4 (P56524 whole entry): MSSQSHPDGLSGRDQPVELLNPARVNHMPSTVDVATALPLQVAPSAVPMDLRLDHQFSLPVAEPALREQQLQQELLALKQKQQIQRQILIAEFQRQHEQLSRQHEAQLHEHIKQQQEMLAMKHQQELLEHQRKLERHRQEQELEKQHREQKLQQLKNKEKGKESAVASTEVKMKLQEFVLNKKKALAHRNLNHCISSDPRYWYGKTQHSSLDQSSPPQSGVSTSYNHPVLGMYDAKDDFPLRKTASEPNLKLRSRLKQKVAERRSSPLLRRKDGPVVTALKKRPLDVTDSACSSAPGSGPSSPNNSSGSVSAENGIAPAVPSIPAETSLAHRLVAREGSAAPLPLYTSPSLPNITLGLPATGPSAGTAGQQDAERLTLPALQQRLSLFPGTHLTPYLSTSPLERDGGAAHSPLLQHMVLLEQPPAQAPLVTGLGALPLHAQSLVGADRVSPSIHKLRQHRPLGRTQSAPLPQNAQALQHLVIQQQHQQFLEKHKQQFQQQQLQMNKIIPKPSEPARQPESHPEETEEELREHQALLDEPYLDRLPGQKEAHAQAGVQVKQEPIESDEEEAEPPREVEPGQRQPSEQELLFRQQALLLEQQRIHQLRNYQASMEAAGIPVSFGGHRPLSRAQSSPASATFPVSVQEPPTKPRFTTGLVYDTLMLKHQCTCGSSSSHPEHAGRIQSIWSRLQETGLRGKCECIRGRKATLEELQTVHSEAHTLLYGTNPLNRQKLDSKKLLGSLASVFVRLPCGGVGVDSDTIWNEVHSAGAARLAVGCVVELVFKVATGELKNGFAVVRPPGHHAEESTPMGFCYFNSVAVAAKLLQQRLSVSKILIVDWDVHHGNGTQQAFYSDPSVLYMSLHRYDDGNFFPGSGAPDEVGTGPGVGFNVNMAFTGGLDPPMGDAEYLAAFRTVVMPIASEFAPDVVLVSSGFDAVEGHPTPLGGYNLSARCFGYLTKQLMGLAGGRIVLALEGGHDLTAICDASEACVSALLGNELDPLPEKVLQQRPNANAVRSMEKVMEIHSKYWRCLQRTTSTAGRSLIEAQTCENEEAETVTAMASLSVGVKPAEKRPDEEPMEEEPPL

Histone deacetylase 9 = Histone deacetylase 9 (Homo sapiens, UniProt Q9UKV0); assay: Inhibition of HDAC9 (unknown origin) using HDAC class IIa substrate (trifluoroacetyl-lysine-AMC) as substrate by fluorescent method
Chain of Histone deacetylase 9 (Q9UKV0 whole entry, the tested form may be a part): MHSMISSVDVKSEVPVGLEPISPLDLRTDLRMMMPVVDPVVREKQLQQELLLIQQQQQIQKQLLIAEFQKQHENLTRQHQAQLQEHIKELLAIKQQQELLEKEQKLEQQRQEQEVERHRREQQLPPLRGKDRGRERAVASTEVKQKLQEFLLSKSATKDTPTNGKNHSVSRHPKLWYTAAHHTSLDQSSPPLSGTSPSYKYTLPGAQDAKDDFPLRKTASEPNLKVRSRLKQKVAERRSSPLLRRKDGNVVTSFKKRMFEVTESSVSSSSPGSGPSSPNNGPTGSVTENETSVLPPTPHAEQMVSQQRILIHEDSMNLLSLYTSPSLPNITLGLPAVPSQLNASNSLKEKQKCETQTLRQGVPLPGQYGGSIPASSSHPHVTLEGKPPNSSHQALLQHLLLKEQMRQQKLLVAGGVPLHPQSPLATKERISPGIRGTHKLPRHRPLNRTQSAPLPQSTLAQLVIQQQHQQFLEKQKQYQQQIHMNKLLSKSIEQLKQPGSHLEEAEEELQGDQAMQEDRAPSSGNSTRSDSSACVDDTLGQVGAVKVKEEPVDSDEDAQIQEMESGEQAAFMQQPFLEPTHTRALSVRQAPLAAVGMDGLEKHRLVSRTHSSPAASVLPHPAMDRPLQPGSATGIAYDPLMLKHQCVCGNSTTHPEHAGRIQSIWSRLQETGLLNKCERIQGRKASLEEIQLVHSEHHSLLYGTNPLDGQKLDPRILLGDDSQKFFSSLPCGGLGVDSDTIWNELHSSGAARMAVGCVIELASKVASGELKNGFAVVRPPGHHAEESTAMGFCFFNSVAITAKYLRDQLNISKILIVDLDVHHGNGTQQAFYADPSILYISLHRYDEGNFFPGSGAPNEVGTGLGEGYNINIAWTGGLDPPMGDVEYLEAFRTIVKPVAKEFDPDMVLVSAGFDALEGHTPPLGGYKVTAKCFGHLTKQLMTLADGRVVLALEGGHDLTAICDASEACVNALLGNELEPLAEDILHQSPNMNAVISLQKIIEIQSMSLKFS

Histone deacetylase 11 [3] = target: T4, Histone deacetylase 11; assay: Inhibition of HDAC11 (unknown origin) using p53 (379 to 382 residues)(RHKK(Ac)-AMC) as substrate by fluorescent method
[4] = target: T1, Polyamine deacetylase HDAC10; assay: Inhibition of HDAC10 (unknown origin) using p53 residues (379 to 382)(RHKK(Ac)-AMC) as substrate by fluorescent method

SMILES	IC50 [1] [µM]	IC50 (Histone deacetylase 2) [µM]	IC50 (Histone deacetylase 7) [µM]	IC50 (Histone deacetylase 8) [µM]	IC50 (Histone deacetylase 11 [2]) [µM]	IC50 (Histone deacetylase 4) [µM]	IC50 (Histone deacetylase 9) [µM]	IC50 (Histone deacetylase 11 [3]) [µM]	IC50 [4] [µM]
CCCCCCCCCCCCCCCCNNC(=O)c1cccs1	> 10	> 10	> 10	6	0.83				
Cn1cc(-c2ccc(S(=O)(=O)n3ccc(/C=C/C(=O)Nc4ccccc4N)c3)cc2)cn1 [DOMATINOSTAT]						> 10	> 10	9.7	> 10
